Test results taken from paper PMC9618137, “Bacterial catabolism of acetovanillone, a lignin-derived compound” (Proceedings of the National Academy of Sciences of the …, 2022).

Tested on: T1, HpeCBA
T1 construct: gene hpeB; hpeCBA co-expressed in Rhodococcus jostii RHA1; untagged complex, ammonium sulfate and anion exchange; with Phosphophenylethanone carboxylase, biotin carboxylase; Phosphophenylethanone carboxylase, biotin carboxyl carrier protein
Test: coupled spectrophotometric assay (pyruvate kinase / lactate dehydrogenase, NADH oxidation)
Assay type: biochemical, Rhodococcus rhodochrous
Conditions: 20 mM MOPS (I = 0.1 M), pH 7.5, 25 °C; ATP, Mg2+, HCO3-
Text: coupled spectrophotometric assay (pyruvate kinase / lactate dehydrogenase, NADH oxidation) on HpeCBA

Row | SMILES | Km [µM]
1 | COc1cc(C(C)=O)ccc1OP(=O)(O)O [PAV] | 560
2 | CC(=O)c1ccc(OP(=O)(O)O)cc1 [PAP] | 69
